Holding throughout (test): relative viability (nuclei count vs DMSO), 5 days (fraction); higher = more cells survive
Compound in the assay “Doxorubicin + Luminespib”: COc1cccc2c1C(=O)c1c(O)c3c(c(O)c1C2=O)C[C@@](O)(C(=O)CO)C[C@@H]3O[C@H]1C[C@H](N)[C@H](O)[C@H](C)O1 [Doxorubicin] + CCNC(=O)c1noc(-c2cc(C(C)C)c(O)cc2O)c1-c1ccc(CN2CCOCC2)cc1 [Luminespib] (partner 0.01 µM)
The procedure, abridged: (§1)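 Lung cancer cell lines were seeded in 1536-well plates and dosed by pin tool the next day, with either a single drug or a fixed anchor-drug dose combined with five library-drug doses (not always all listed) spaced in √10 steps. Five days later, one step fixed the cells and stained their nuclei (final 0.05% Triton X-100, 1% formaldehyde, 1 ug/ml Hoechst), and nuclei were counted on 4× images. Relative viability is the nuclei count in treated wells divided by the count in vehicle wells, and each value is the median of duplicate plates.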

Compound in the assay “BAY61-3606 + OSI-027”: COC1=C(C=C(C=C1)C2=CC3=NC=CN3C(=N2)NC4=C(C=CC=N4)C(=O)N)OC [BAY61-3606] + COc1cccc2cc(-c3nc([C@H]4CC[C@H](C(=O)O)CC4)n4ncnc(N)c34)[nH]c12 [OSI-027] (partner 0.5 µM)
The procedure, abridged:
as §1

Compound in the assay “Doxorubicin + Lapatinib”: COc1cccc2c1C(=O)c1c(O)c3c(c(O)c1C2=O)C[C@@](O)(C(=O)CO)C[C@@H]3O[C@H]1C[C@H](N)[C@H](O)[C@H](C)O1 [Doxorubicin] + CS(=O)(=O)CCNCc1ccc(-c2ccc3ncnc(Nc4ccc(OCc5cccc(F)c5)c(Cl)c4)c3c2)o1 [Lapatinib] (partner 2 µM)
In short, it runs like this: as §1

Compound in the assay “Doxorubicin + AZD7762”: COc1cccc2c1C(=O)c1c(O)c3c(c(O)c1C2=O)C[C@@](O)(C(=O)CO)C[C@@H]3O[C@H]1C[C@H](N)[C@H](O)[C@H](C)O1 [Doxorubicin] + NC(=O)Nc1cc(-c2cccc(F)c2)sc1C(=O)N[C@H]1CCCNC1 [AZD7762] (partner 0.2 µM)
In short, it runs like this: as §1

As for LC-2-ad, the relative viability with Doxorubicin + Luminespib (first compound 0.001 µM) stood at 0.889; with Doxorubicin + Luminespib (first compound 0.003162 µM), 0.696; with Doxorubicin + Luminespib (first compound 0.01 µM), 0.642; with Doxorubicin + Luminespib (first compound 0.03162 µM), 0.421; in the assay with Doxorubicin + Luminespib (first compound 0.1 µM), 0.295; with BAY61-3606 + OSI-027 (first compound 0.02 µM), 0.853. Moreover, the relative viability in the assay with BAY61-3606 + OSI-027 (first compound 0.06325 µM) was found to be 0.772; with BAY61-3606 + OSI-027 (first compound 0.2 µM), 0.8; with BAY61-3606 + OSI-027 (first compound 0.6325 µM), 0.997; with BAY61-3606 + OSI-027 (first compound 2 µM) it was 0.654; in the assay with Doxorubicin + Lapatinib (first compound 0.001 µM) it was 0.838; with Doxorubicin + Lapatinib (first compound 0.003162 µM), 0.958. In addition, the relative viability was 0.935 with Doxorubicin + Lapatinib (first compound 0.01 µM); 0.697 with Doxorubicin + Lapatinib (first compound 0.03162 µM); 0.255 with Doxorubicin + Lapatinib (first compound 0.1 µM); 0.831 in the assay with Doxorubicin + AZD7762 (first compound 0.001 µM); 0.781 with Doxorubicin + AZD7762 (first compound 0.003162 µM); 0.859 in the assay with Doxorubicin + AZD7762 (first compound 0.01 µM). The relative viability worked out at 0.827 in the assay with Doxorubicin + AZD7762 (first compound 0.03162 µM) and 0.725 with Doxorubicin + AZD7762 (first compound 0.1 µM).

In the case of NCI-H2087, the relative viability with Doxorubicin + Luminespib (first compound 0.003162 µM) is 0.19; in the assay with Doxorubicin + Luminespib (first compound 0.01 µM), 0.14; in the assay with Doxorubicin + Luminespib (first compound 0.03162 µM), 0.133; with Doxorubicin + Luminespib (first compound 0.1 µM), 0.144; with BAY61-3606 + OSI-027 (first compound 0.02 µM), 0.47; with BAY61-3606 + OSI-027 (first compound 0.06325 µM) it was 0.577. Also, the relative viability with BAY61-3606 + OSI-027 (first compound 0.2 µM) came out at 0.557; in the assay with BAY61-3606 + OSI-027 (first compound 0.6325 µM), 0.555; in the assay with BAY61-3606 + OSI-027 (first compound 2 µM) it was 0.417; in the assay with Doxorubicin + Lapatinib (first compound 0.001 µM), 0.749; with Doxorubicin + Lapatinib (first compound 0.003162 µM), 1.01; with Doxorubicin + Lapatinib (first compound 0.01 µM), 0.815. Besides, the relative viability with Doxorubicin + Lapatinib (first compound 0.03162 µM) is 0.759; with Doxorubicin + Lapatinib (first compound 0.1 µM), 0.529; with Doxorubicin + AZD7762 (first compound 0.001 µM) it was 1.3; with Doxorubicin + AZD7762 (first compound 0.003162 µM), 1.32; with Doxorubicin + AZD7762 (first compound 0.01 µM) it was 1.32; in the assay with Doxorubicin + AZD7762 (first compound 0.03162 µM) it was 1.34. The relative viability with Doxorubicin + AZD7762 (first compound 0.1 µM) amounted to 1.17.

As to BEN, the relative viability turned out to be 0.368 in the assay with Doxorubicin + Luminespib (first compound 0.001 µM); 0.39 with Doxorubicin + Luminespib (first compound 0.003162 µM); 0.317 with Doxorubicin + Luminespib (first compound 0.01 µM); 0.277 with Doxorubicin + Luminespib (first compound 0.03162 µM); 0.283 with Doxorubicin + Luminespib (first compound 0.1 µM); 0.336 with BAY61-3606 + OSI-027 (first compound 0.02 µM). The relative viability is 0.316 with BAY61-3606 + OSI-027 (first compound 0.06325 µM); 0.316 with BAY61-3606 + OSI-027 (first compound 0.2 µM); 0.285 with BAY61-3606 + OSI-027 (first compound 0.6325 µM); 0.276 with BAY61-3606 + OSI-027 (first compound 2 µM); 1.01 in the assay with Doxorubicin + Lapatinib (first compound 0.001 µM); 0.608 with Doxorubicin + Lapatinib (first compound 0.003162 µM). The relative viability with Doxorubicin + Lapatinib (first compound 0.01 µM) was found to be 0.697; with Doxorubicin + Lapatinib (first compound 0.03162 µM), 0.474; with Doxorubicin + Lapatinib (first compound 0.1 µM) it was 0.644; with Doxorubicin + AZD7762 (first compound 0.001 µM) it was 0.96; in the assay with Doxorubicin + AZD7762 (first compound 0.003162 µM), 0.65; with Doxorubicin + AZD7762 (first compound 0.01 µM) it was 0.82. In addition, the relative viability came to 0.562 with Doxorubicin + AZD7762 (first compound 0.03162 µM) and 0.624 with Doxorubicin + AZD7762 (first compound 0.1 µM).

As for LK-2, the relative viability worked out at 0.171 with Doxorubicin + Luminespib (first compound 0.001 µM); 0.215 with Doxorubicin + Luminespib (first compound 0.003162 µM); 0.235 in the assay with Doxorubicin + Luminespib (first compound 0.01 µM); 0.162 with Doxorubicin + Luminespib (first compound 0.03162 µM); 0.16 in the assay with Doxorubicin + Luminespib (first compound 0.1 µM); 0.197 with BAY61-3606 + OSI-027 (first compound 0.02 µM). The relative viability in the assay with BAY61-3606 + OSI-027 (first compound 0.06325 µM) stood at 0.16; with BAY61-3606 + OSI-027 (first compound 0.2 µM) it was 0.22; with BAY61-3606 + OSI-027 (first compound 0.6325 µM), 0.231; with BAY61-3606 + OSI-027 (first compound 2 µM) it was 0.185; in the assay with Doxorubicin + Lapatinib (first compound 0.001 µM), 0.879; in the assay with Doxorubicin + Lapatinib (first compound 0.003162 µM), 0.74. Besides, the relative viability came out at 0.804 in the assay with Doxorubicin + Lapatinib (first compound 0.01 µM); 0.724 with Doxorubicin + Lapatinib (first compound 0.03162 µM); 0.81 with Doxorubicin + Lapatinib (first compound 0.1 µM); 0.354 with Doxorubicin + AZD7762 (first compound 0.001 µM); 0.578 with Doxorubicin + AZD7762 (first compound 0.003162 µM); 0.274 with Doxorubicin + AZD7762 (first compound 0.01 µM). For the same cell line, the relative viability came out at 0.341 with Doxorubicin + AZD7762 (first compound 0.03162 µM) and 0.251 with Doxorubicin + AZD7762 (first compound 0.1 µM).

Consider ABC-1, for which the relative viability amounted to 0.484 in the assay with Doxorubicin + Luminespib (first compound 0.001 µM); 0.418 with Doxorubicin + Luminespib (first compound 0.003162 µM); 0.347 with Doxorubicin + Luminespib (first compound 0.01 µM); 0.339 with Doxorubicin + Luminespib (first compound 0.03162 µM); 0.213 with Doxorubicin + Luminespib (first compound 0.1 µM); 0.51 with BAY61-3606 + OSI-027 (first compound 0.02 µM). Also, the relative viability with BAY61-3606 + OSI-027 (first compound 0.06325 µM) was 0.545; with BAY61-3606 + OSI-027 (first compound 0.2 µM) it was 0.521; in the assay with BAY61-3606 + OSI-027 (first compound 0.6325 µM), 0.647; with BAY61-3606 + OSI-027 (first compound 2 µM) it was 0.452; in the assay with Doxorubicin + Lapatinib (first compound 0.001 µM), 1.14; with Doxorubicin + Lapatinib (first compound 0.003162 µM), 1.54. In addition, the relative viability with Doxorubicin + Lapatinib (first compound 0.01 µM) stood at 0.975; in the assay with Doxorubicin + Lapatinib (first compound 0.03162 µM) it was 1.07; in the assay with Doxorubicin + Lapatinib (first compound 0.1 µM), 1.1; with Doxorubicin + AZD7762 (first compound 0.001 µM), 0.443; with Doxorubicin + AZD7762 (first compound 0.003162 µM), 0.937; with Doxorubicin + AZD7762 (first compound 0.03162 µM) it was 0.655. Also, the relative viability in the assay with Doxorubicin + AZD7762 (first compound 0.1 µM) came out at 0.6.

Consider NCI-H1993, for which the relative viability in the assay with Doxorubicin + Luminespib (first compound 0.001 µM) was found to be 1.8; with Doxorubicin + Luminespib (first compound 0.003162 µM), 0.859; with Doxorubicin + Luminespib (first compound 0.01 µM) it was 0.8; in the assay with Doxorubicin + Luminespib (first compound 0.03162 µM), 0.713; with Doxorubicin + Luminespib (first compound 0.1 µM), 0.727; in the assay with BAY61-3606 + OSI-027 (first compound 0.02 µM), 0.586. The relative viability stood at 0.583 in the assay with BAY61-3606 + OSI-027 (first compound 0.06325 µM); 0.505 with BAY61-3606 + OSI-027 (first compound 0.2 µM); 0.564 with BAY61-3606 + OSI-027 (first compound 0.6325 µM); 0.587 with BAY61-3606 + OSI-027 (first compound 2 µM); 0.823 in the assay with Doxorubicin + Lapatinib (first compound 0.001 µM); 0.778 with Doxorubicin + Lapatinib (first compound 0.003162 µM). The relative viability came out at 0.748 with Doxorubicin + Lapatinib (first compound 0.01 µM); 0.633 with Doxorubicin + Lapatinib (first compound 0.03162 µM); 0.501 with Doxorubicin + Lapatinib (first compound 0.1 µM); 0.856 in the assay with Doxorubicin + AZD7762 (first compound 0.001 µM); 0.882 in the assay with Doxorubicin + AZD7762 (first compound 0.003162 µM); 0.708 with Doxorubicin + AZD7762 (first compound 0.01 µM). Also, the relative viability turned out to be 0.73 with Doxorubicin + AZD7762 (first compound 0.03162 µM) and 0.579 with Doxorubicin + AZD7762 (first compound 0.1 µM).

The record behind these values is the supplement of paper PMC10307832.
